# Source: US11999716B2, “WDR5 inhibitors and modulators” (priority 2018, dated 2024)
# Like-named read-outs stand apart in the source and are kept apart here.
# Tested on: MV4:11 human cancer cell lines
# Experiment: Cellular viability / anti-proliferative activity, CellTiter-Glo, 5 day protocol
# Format: cell-based
# Details: MV4:11 cells, 5 day incubation, CellTiter-Glo, mean of minimum two replicates, read-out: GI50 on cellular proliferation of MV4:11 human cancer cell lines
# Outline: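 Compounds were tested over 22 two-fold dilutions starting at 30 μM in 0.3% DMSO, with 200 cells per well (7200 cells/mL). Viability was measured by CellTiter-Glo luminescence at day 5.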
SMILES,"GI50 (Homo sapiens, MV4-11, 120 h) [nM]",GI50 [nM]
"CCn1cc(CN2CCc3c(cc(Cn4ccnc4C)cc3-c3cn(C)nc3C(F)(F)F)C2=O)c2ccccc21 [Example 187, 2-((1-Ethyl-1H-indol-3-yl)methyl)-7-((2-methyl-1H-imidazol-1-yl)methyl)-5-(1-methyl-3-(trifluoromethyl)-1H-pyrazol-4-yl)-3,4-dihydroisoquinolin-1(2H)-one]",591,
"Cc1nnc(CN2CCc3c(cc(Cn4ccnc4C)cc3-c3cn(C)nc3C(F)(F)F)C2=O)o1 [Example 188, 2-((5-Methyl-1,3,4-oxadiazol-2-yl)methyl)-7-((2-methyl-1H-imidazol-1-yl)methyl)-5-(1-methyl-3-(trifluoromethyl)-1H-pyrazol-4-yl)-3,4-dihydroisoquinolin-1(2H)-one]",730,
"Cc1nccn1Cc1cc2c(c(-c3cn(C)nc3C(F)(F)F)c1)CCN(Cc1cn(C)c3ccccc13)C2=O [Example 189, 7-((2-Methyl-1H-imidazol-1-yl)methyl)-2-((1-methyl-1H-indol-3-yl)methyl)-5-(1-methyl-3-(trifluoromethyl)-1H-pyrazol-4-yl)-3,4-dihydroisoquinolin-1(2H)-one]",1000,
"Cc1cc(CN2CCc3c(cc(Cn4ccnc4C)cc3-c3cn(C)nc3C(F)(F)F)C2=O)on1 [Example 190, 7-((2-Methyl-1H-imidazol-1-yl)methyl)-5-(1-methyl-3-(trifluoromethyl)-1H-pyrazol-4-yl)-2-((3-methylisoxazol-5-yl)methyl)-3,4-dihydroisoquinolin-1(2H)-one]",349,
"CCc1ccnc([C@H](C)N2CCc3c(cc(Cn4ccnc4)cc3-c3cn(C)nc3C(F)(F)F)C2=O)c1 [Example 191, (S)-7-((1H-Imidazol-1-yl)methyl)-2-(1-(4-ethylpyridin-2-yl)ethyl)-5-(1-methyl-3-(trifluoromethyl)-1H-pyrazol-4-yl)-3,4-dihydroisoquinolin-1(2H)-one]",< 50,
"COc1ccnc([C@H](C)N2CCc3c(cc(Cn4ccnc4C)cc3-c3cccnc3C(F)(F)F)C2=O)c1 [Example 192, (S)-2-(1-(4-Methoxypyridin-2-yl)ethyl)-7-((2-methyl-1H-imidazol-1-yl)methyl)-5-(2-(trifluoromethyl)pyridin-3-yl)-3,4-dihydroisoquinolin-1(2H)-one]",77,
"Cc1nccn1Cc1cc2c(c(-c3cn(C)nc3C(F)(F)F)c1)CCN(Cc1cn(C(C)C)c3ccccc13)C2=O [Example 193, 2-((1-Isopropyl-1H-indol-3-yl)methyl)-7-((2-methyl-1H-imidazol-1-yl)methyl)-5-(1-methyl-3-(trifluoromethyl)-1H-pyrazol-4-yl)-3,4-dihydroisoquinolin-1(2H)-one]",2330,
"Cc1cnc(CN2CCc3c(cc(Cn4ccnc4C)cc3-c3cn(C)nc3C(F)(F)F)C2=O)o1 [Example 194, 7-((2-Methyl-1H-imidazol-1-yl)methyl)-5-(1-methyl-3-(trifluoromethyl)-1H-pyrazol-4-yl)-2-((5-methyloxazol-2-yl)methyl)-3,4-dihydroisoquinolin-1(2H)-one]",252,
"Cc1cnc(CN2CCc3c(cc(Cn4ccnc4C)cc3-c3cn(C)nc3C(F)(F)F)C2=O)s1 [Example 195, 7-((2-Methyl-1H-imidazol-1-yl)methyl)-5-(1-methyl-3-(trifluoromethyl)-1H-pyrazol-4-yl)-2-((5-methylthiazol-2-yl)methyl)-3,4-dihydroisoquinolin-1(2H)-one]",217,
"COc1ccnc([C@H](C)N2CCc3c(cc(Cn4ccnc4C)cc3-c3cnccc3C)C2=O)c1 [Example 196, (S)-2-(1-(4-Methoxypyridin-2-yl)ethyl)-7-((2-methyl-1H-imidazol-1-yl)methyl)-5-(4-methylpyridin-3-yl)-3,4-dihydroisoquinolin-1(2H)-one]",936,
"Cc1cncc([C@@H](C)N2CCc3c(cc(Cn4ccnc4C)cc3-c3cn(C)nc3C(F)(F)F)C2=O)c1 [Example 197, (R)-7-((2-Methyl-1H-imidazol-1-yl)methyl)-5-(1-methyl-3-(trifluoromethyl)-1H-pyrazol-4-yl)-2-(1-(5-methylpyridin-3-yl)ethyl)-3,4-dihydroisoquinolin-1(2H)-one]",< 50,

# Continued, values first:
"GI50 (Homo sapiens, MV4-11, 120 h) [nM]",GI50 [nM],SMILES
62,,"CC[C@H](c1cncc(C)c1)N1CCc2c(cc(Cn3ccnc3C)cc2-c2cn(C)nc2C(F)(F)F)C1=O [Example 198, (R)-7-((2-Methyl-1H-imidazol-1-yl)methyl)-5-(1-methyl-3-(trifluoromethyl)-1H-pyrazol-4-yl)-2-(1-(5-methylpyridin-3-yl)propyl)-3,4-dihydroisoquinolin-1(2H)-one]"
< 50,,"CC[C@@H](c1cncc(C)c1)N1CCc2c(cc(Cn3ccnc3C)cc2-c2cn(C)nc2C(F)(F)F)C1=O [Example 199, (S)-7-((2-Methyl-1H-imidazol-1-yl)methyl)-5-(1-methyl-3-(trifluoromethyl)-1H-pyrazol-4-yl)-2-(1-(5-methylpyridin-3-yl)propyl)-3,4-dihydroisoquinolin-1(2H)-one]"
< 50,,"Cc1cncc([C@H](C)N2CCc3c(cc(Cn4ccnc4C)cc3-c3cn(C)nc3C(F)(F)F)C2=O)c1 [Example 200, (S)-7-((2-Methyl-1H-imidazol-1-yl)methyl)-5-(1-methyl-3-(trifluoromethyl)-1H-pyrazol-4-yl)-2-(1-(5-methylpyridin-3-yl)ethyl)-3,4-dihydroisoquinolin-1(2H)-one]"
,< 50,"Cc1cc([C@H](C)N2CCc3c(cc(Cn4ccnc4)cc3-c3cn(C)nc3C(F)(F)F)C2=O)ncc1F [Example 201, (S)-7-((1H-imidazol-1-yl)methyl)-2-(1-(5-fluoro-4-methylpyridin-2-yl)ethyl)-5-(1-methyl-3-(trifluoromethyl)-1H-pyrazol-4-yl)-3,4-dihydroisoquinolin-1(2H)-one]"
230,,"COc1ccnc([C@H](C)N2CCc3c(cc(Cn4ccnc4C)cc3-c3cccnc3C)C2=O)c1 [Example 202, (S)-2-(1-(4-Methoxypyridin-2-yl)ethyl)-7-((2-methyl-1H-imidazol-1-yl)methyl)-5-(2-methylpyridin-3-yl)-3,4-dihydroisoquinolin-1(2H)-one]"
52,,"COc1ccnc([C@H](C2CC2)N2CCc3c(cc(Cn4ccnc4C)cc3-c3cn(C)nc3C)C2=O)c1 [Example 203, (S)-2-(Cyclopropyl(4-methoxypyridin-2-yl)methyl)-5-(1,3-dimethyl-1H-pyrazol-4-yl)-7-((2-methyl-1H-imidazol-1-yl)methyl)-3,4-dihydroisoquinolin-1(2H)-one]"
58,,"Cc1nccn1Cc1cc2c(c(-c3cn(C)nc3C(F)(F)F)c1)CCN(Cc1cc(Br)c3ccccc3n1)C2=O [Example 204, 2-((4-Bromoquinolin-2-yl)methyl)-7-((2-methyl-1H-imidazol-1-yl)methyl)-5-(1-methyl-3-(trifluoromethyl)-1H-pyrazol-4-yl)-3,4-dihydroisoquinolin-1(2H)-one]"
< 50,,"Cc1nccn1Cc1cc2c(c(-c3cn(C)nc3C(F)(F)F)c1)CCN(Cc1cc(Br)ccn1)C2=O [Example 205, 2-((4-Bromopyridin-2-yl)methyl)-7-((2-methyl-1H-imidazol-1-yl)methyl)-5-(1-methyl-3-(trifluoromethyl)-1H-pyrazol-4-yl)-3,4-dihydroisoquinolin-1(2H)-one]"
